Source: PubChem BioAssay AID623940 (Vanderbilt Specialized Chemistry Center, 2012)
Calls of active or inactive are those of the source.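 How the source made its calls: active means a response that changes with dose, reported with a potency and a percent of the peak acetylcholine response; inactive means the rest.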

Molecular target: Muscarinic acetylcholine receptor M1 (Rattus norvegicus) (UniProt P08482)
Test: rat M1 muscarinic receptor PAM counter-screen, SAR follow-up, selectivity assay for M4 PAM optimization project, CHO cells, Fluo-4 calcium, ACh EC20 (AID 623940)
Settings: CHO rat M1, Fluo-4 calcium, ACh EC20 potentiation; for percent of ACh max response: at 30 µM (top of the series)

Muscarinic acetylcholine receptor M1 (Rattus norvegicus), sequence (P08482 whole entry, looked up): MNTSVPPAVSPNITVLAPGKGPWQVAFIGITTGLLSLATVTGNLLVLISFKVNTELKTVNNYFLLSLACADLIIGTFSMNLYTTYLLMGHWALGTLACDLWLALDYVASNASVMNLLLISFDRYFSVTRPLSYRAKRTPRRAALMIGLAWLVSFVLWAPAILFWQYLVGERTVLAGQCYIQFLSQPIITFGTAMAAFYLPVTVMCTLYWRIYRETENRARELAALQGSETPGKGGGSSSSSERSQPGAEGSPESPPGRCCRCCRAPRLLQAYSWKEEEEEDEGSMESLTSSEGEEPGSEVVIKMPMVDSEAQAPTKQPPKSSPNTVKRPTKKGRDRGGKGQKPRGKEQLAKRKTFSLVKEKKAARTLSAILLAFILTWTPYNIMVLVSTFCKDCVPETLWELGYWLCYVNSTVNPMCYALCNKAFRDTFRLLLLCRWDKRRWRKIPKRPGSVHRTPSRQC

Compound	outcome	percent of ACh max response	further results
Cc1nc2sc(C(=O)NCc3ccc4c(c3)OCO4)c(N)c2c(C)c1Cl	inactive		
Cc1nc2sc(C(=O)NC3CC3)c(N)c2c(C)c1Cl			EC50: 0.943 µM
COc1ccc(C)c2sc(NC(=O)c3ccncc3)nc12		inactive	
Cc1nc2sc(C(=O)NCc3cccc(F)c3F)c(N)c2c(C)c1Cl		inactive	

Now from value to molecule, other results behind:

outcome	percent of ACh max response	Compound	further results
inactive		Cc1nc2sc(C(=O)NCc3ccccc3)c(N)c2c(C)c1Cl	
	inactive	Cc1nc2sc(C(=O)NCCc3ccncc3)c(N)c2c(C)c1Cl	
	inactive	Cc1nc2sc(C(=O)NCc3ccncn3)c(N)c2c(C)c1Cl	
inactive		Cc1nc2sc(C(=O)NCc3cccnc3)c(N)c2c(C)c1Cl	
inactive		Cc1nc2sc(C(=O)NCc3ccncc3)c(N)c2c(C)c1Cl	
	inactive	Cc1nc2sc(C(=O)NCc3nccs3)c(N)c2c(C)c1Cl	
